This is an account of results in patent US9198906B2, “Ketoconazole enantiomer in humans” (Cortendo AB (publ), priority 2006, dated 2015).

The clearance is the volume of plasma or blood freed of the substance per unit of time. The low end stands for a low capacity for elimination, the high end for a high capacity for elimination.

Data set [1] concerns patients with type 2 diabetes mellitus. Briefly: Phase 2a trial, HbA1c (glycemic control). In kind it is in vivo, human. The protocol: (§1) Five (5) dose groups were studied.
(§2) The first dose of the study drug was given on Day 1 at 2200 h. Activity markers measured on Day 1 prior to administration of the drug (“Visit 1”). The last dose of study drug was given on Day 14 at 2200 h and activity markers measured on Day 15 (“Visit 3”). Measurements of safety markers were taken on Visits 1 and 3, as well as Visit 2 (Day 8) and Visit 4 (Day 28).
This test measure levels of glycated hemoglobin and reflects the average blood glucose level for a subject over the preceding 3 months (approximately). Elevated levels are common in diabetics. Lowering the hemoglobin A1c number can delay or prevent the development of serious eye, kidney, and nerve disease in individuals with diabetes.

Data set [2] has the same test system. Nature of the data set: Phase 2a trial, fructosamine (glycemic control). In kind it is in vivo, human. The protocol:
as §1, §2
Fructosamine levels were measured at baseline and after two weeks of therapy (see Table 4 and FIGS. 1 and 2). […] Fructosamine levels reflect blood glucose levels over the preceding 2-3 weeks.

The test system is the same in data set [3]. Briefly: Phase 2a trial, total cholesterol. In kind it is in vivo, human. The protocol:
as §1, §2

The test system is the same in data set [4]. Briefly: Phase 2a trial, LDL cholesterol. In kind it is in vivo, human. The protocol:
as §1, §2

The test system is the same in data set [5]. Briefly: Phase 2a trial, continuous blood pressure monitoring. The format is in vivo, human. As to conditions: Visits 1 and 3, 14 daily doses. The protocol: as §1
Continuous blood pressure monitoring was performed during Visits 1 and 3.

Data set [6] shares this test system. Nature of the data set: Phase 2a trial, C-reactive protein (marker of inflammation). In kind it is in vivo, human. The protocol: as §1, §2
Data set [7] shares this test system. Briefly: Phase 2a trial, liver function tests (AST/ALT/AP). As to conditions: Subject 04-016, KTZ 400 mg. The protocol:
as §2

The subject of data set [8] is healthy volunteers. As to conditions: published reports, e.g. Morganroth et al. 1997; cited from earlier work.
The conditions of data set [9]: plasma; Beagle dogs, racemic ketoconazole 30 mg/dog intravenous bolus.
Protocol: The pharmacokinetics of each of the ketoconazole enantiomers was studied following intravenous administration of racemic ketoconazole. Racemic ketoconazolewas dissolved in ethanol to 60 mg/ml. Each of three Beagle dogs was administered 0.5 ml bolus (30 mg/dog) intravenously.
Blood was collected from each dog prior to dosing (“0 min”) and at 2, 5, 10, 15, 30 min, and 1, 2, 4, 6, 8, and 24 hrs post-dosing. At each timepoint, blood (0.3 mL/sample) was collected and placed into labeled Microtainer® tubes with heparin as the anti-coagulant. The heparinized blood was centrifuged, and the supernatant pipetted off into another set of labeled Eppendorf® tubes. The derived plasma samples were analyzed for each of the two ketoconazole enantiomers (2S,4R and 2R,4S) and pharmacokinetic parameters determined for each of the enantiomers.
Where [10] appears, read: 400 mg po QD, 14 daily doses, Visit 3 (Day 15).
Setting [11] is: 400 mg po QD group, Visit 1 (baseline, before first dose).

Consider `CC(=O)N1CCN(c2ccc(OCC3COC(Cn4ccnc4)(c4ccc(Cl)cc4Cl)O3)cc2)CC1` (racemic) [KTZ, 1-acetyl-4-[4-[[2-(2,4-dichlorophenyl)-2-[(1H-imidazol-1-yl)-methyl]-1,3-dioxolan-4-yl]methoxy]phenyl]piperazine, reference compound], for which, in data set [1] (400 mg po QD group, Visit 1 (Day 1, before first dose, baseline)), the “Visit 1 HbA1c mean” value is listed as 8.05%. In data set [1] (400 mg po QD, 14 daily doses), the “HbA1c Change vs Baseline mean” value is reported as −0.37%. Also, the “Visit 3 HbA1c mean” value in [1] (setting [10]) is reported as 7.68%. Besides, the “Fructosamine Visit 1 mean” value in [2] (setting [11]) is 272.57 µmol/L. Besides, the “Fructosamine Change vs Baseline mean” value in data set [2] (400 mg po QD, 14 daily doses) was -2.29 µmol/L. Moreover, the “Fructosamine Visit 3 mean” value in data set [2] (setting [10]) was found to be 270.29 µmol/L. Besides, the “Total cholesterol Visit 1 mean” value in [3] (setting [11]) was found to be 198.14 mg/dL. Also, in data set [3] (400 mg po QD, 14 daily doses), the “Total cholesterol Change mean” value is -33.57 mg/dL and the “Total cholesterol Mean % change” value is reported as −15.46%. Moreover, the “Total cholesterol Visit 3 mean” value in [3] (setting [10]) stood at 164.57 mg/dL. The “LDL cholesterol Visit 1 mean” value in data set [4] (setting [11]) came out at 118.71 mg/dL. For the same molecule, in data set [4] (400 mg po QD, 14 daily doses), the “LDL cholesterol Mean % change” value is on record as −24.73% and the “LDL cholesterol change mean” value is -30.43 mg/dL. Further, in [4] (setting [10]), the “LDL cholesterol Visit 3 mean” value came to 88.29 mg/dL. For the same molecule, the “effect on blood pressure readings” value in data set [5] was “no reductions”. Further, the “C-Reactive Protein (CRP) Visit 1 mean” value in data set [6] (setting [11]) is given as 2.28 mg/L. In data set [6] (400 mg po QD, 14 daily doses), the “CRP Mean % change vs baseline” value is on record as 9.78%. In addition, the “C-Reactive Protein (CRP) Visit 3 mean” value in data set [6] (setting [10]) is given as 2.22 mg/L. In data set [6] (14 daily doses), the “effect on CRP” value is “did not reduce CRP levels and actually led to an increase in CRP”. In data set [7] (Screening Visit), this molecule came in with an ALT of 28 u/L, an AP of 110 u/L and an AST of 33 u/L. In [7] (Visit 1 (pre-1st dose)), this molecule showed an ALT of 37 u/L, an AP of 109 u/L and an AST of 53 u/L. In data set [7] (Visit 2), the ALT came to 19 u/L, the AP was 137 u/L and the AST was 36 u/L. In [7] (Visit 3 (last dose)), this molecule gave an ALT of 18 u/L, an AP of 103 u/L and an AST of 31 u/L. Also, in [8], the “effect on QTc interval” value is listed as “does not increase”.

In data set [9], `CC(=O)N1CCN(c2ccc(OC[C@H]3CO[C@](Cn4ccnc4)(c4ccc(Cl)cc4Cl)O3)cc2)CC1` (single isomer, unassigned) [2R,4S ketoconazole enantiomer, reference compound] came in with a clearance of 24.03 mL/min/kg and a terminal half life of 55.8 min.
